The text below walks through data of patent publication US20050107432A1, “Sigma receptor binder containing indanone derivative” (priority 2002, published 2005).

Molecules are shown by their SMILES. Counter-ions that a name gives are not always drawn.

The target of the assay is Sigma receptor. The assay can be described thus: Sigma receptor binding assay (3H-DTG, guinea pig brain crude membrane fraction). Conditions: for IC50: inhibition of 3H-DTG binding to guinea pig brain crude membrane fraction, 25° C., 1 hour; for sigma receptor binding action: result in words, no value given. Here is the method:
Sigma Receptor Binding Assay
(1) Preparation of Receptor
Ten male guinea pigs (Crj, Hartley, from Charles River Japan, Inc.) (body weight: 234 g to 260 g) were decapitated, exsanguinated and died. The brain was immediately removed, homogenized with ten volumes of 50 mM Tris-HCl (pH 7.4) using a Teflon homogenizer and was centrifuged at a rate of 50000× g at 4° C. for 20 minutes. The washing procedure was repeated once more under the same conditions, and the resulting crude membrane fraction was subjected to the assay.
The filter paper was transferred to a vial for radioactivity measurement, mixed with 5 mL of a liquid scintillation cocktail (Atomlight, from PACKARD), and the radioactivity on the filter was determined by a liquid scintillation counter (Model 1500, from PACKARD) for 2 minutes. The specific binding and the non-specific binding in the absence of the test compound were determined in the same way as above except for using 50% DMSO solution instead of the test compound and using a 100 μM Haloperidol solution instead of the test compound, respectively.
(3) Determination of Inhibition
The inhibitions of the test compound at individual concentrations were determined from the ratio of the specific binding in the presence of the test compound to the specific binding in the absence thereof. The dose-response curve was regressed according to a logit-log model in which the ratio of the specific binding in the presence of the test compound to the specific binding in the absence thereof was subjected to logit transformation and plotted against the common logarithm value of each concentration.

Compound `CCOc1cc2c(cc1OCC)C(=O)C(CC1CCN(Cc3ccc(Cl)cc3)CC1)C2` (stereo not drawn) [Example 13, 1-(4-chlorobenzyl)-4-[(5,6-diethoxy-1-indanon)-2-yl]methylpiperidine hydrochloride] displayed a 50% inhibitory concentration (IC50) of 1.6 nM.

Turning to `O=C1c2ccc(C3CCCCC3)cc2CC1CC1CCN(Cc2ccccc2)CC1` (stereo not drawn) [Example 22, hydrochloride], the IC50 was found to be 1.3 nM.

For the compound `COc1cc2c(cc1OC)C(=O)C(=CC1CCN(Cc3ccccc3)CC1)C2.Cl` [Example 25, 1-Benzyl-4-[(5,6-dimethoxy-1-indanon)-2-ylidene]methylpiperidine hydrochloride], the “sigma receptor binding action” value was “found to have a sigma receptor binding action”.

In the case of `CCOc1cc2c(cc1OCC)C(=O)C(=CC1CCN(Cc3ccccc3)CC1)C2.Cl` [Example 26, 1-Benzyl-4-[(5,6-diethoxy-1-indanon)-2-ylidene]methylpiperidine hydrochloride], the “sigma receptor binding action” value is recorded as “found to have a sigma receptor binding action”.

With `Cl.O=C1c2ccccc2CC1CC1CCN(Cc2ccccc2)CC1` (stereo not drawn) [Example 27, 1-Benzyl-4-[(1-indanon)-2-yl]methylpiperidine hydrochloride], the IC50 was 1.7 nM and the “sigma receptor binding action” value is given as “found to have a sigma receptor binding action”.

`COc1ccc2c(c1)CC(CC1CCN(Cc3ccccc3)CC1)C2=O.Cl` (stereo not drawn) [Example 28, 1-Benzyl-4-[(5-methoxy-1-indanon)-2-yl]methylpiperidine hydrochloride]: the concentration for half-maximal inhibition (IC50) was found to be 2.3 nM and the “sigma receptor binding action” value is recorded as “found to have a sigma receptor binding action”.

Regarding `CCOc1cc2c(cc1OC)C(=O)C(CC1CCN(Cc3ccccc3)CC1)C2.Cl` (stereo not drawn) [Example 29, 1-Benzyl-4-[(5-ethoxy-6-methoxy-1-indanon)-2-yl]methylpiperidine hydrochloride], the “sigma receptor binding action” value is reported as “found to have a sigma receptor binding action”.

For `CCOc1cc2c(cc1OCC)C(=O)C(CC1CCN(Cc3ccccc3)CC1)C2.Cl` (stereo not drawn) [Example 30, 1-Benzyl-4-[(5,6-diethoxy-1-indanon)-2-yl]methylpiperidine hydrochloride], the IC50 worked out at 3.7 nM and the “sigma receptor binding action” value is given as “found to have a sigma receptor binding action”.

On to `CCCOc1cc2c(cc1OCCC)C(=O)C(CC1CCN(Cc3ccccc3)CC1)C2.Cl` (stereo not drawn) [Example 31, 1-Benzyl-4-[[5,6-di(1-propyloxy)-1-indanon)-2-yl]methylpiperidine hydrochloride], for which the “sigma receptor binding action” value is listed as “found to have a sigma receptor binding action”.

`COc1cc2c(cc1OC)C(=O)C(CCC1CCN(Cc3ccccc3)CC1)C2.Cl` (stereo not drawn) [Example 32, 1-Benzyl-4-[2-[(5,6-dimethoxy-1-indanon)-2-yl]ethyl]piperidine hydrochloride]: the “sigma receptor binding action” value is on record as “found to have a sigma receptor binding action”.

As for `COc1cc2c(cc1OC)C(=O)C(CCCC1CCN(Cc3ccccc3)CC1)C2.Cl` (stereo not drawn) [Example 33, 1-Benzyl-4-[3-[(5,6-dimethoxy-1-indanon)-2-yl]propyl]piperidine hydrochloride], the 50% inhibitory concentration (IC50) came out at 7.6 nM and the “sigma receptor binding action” value is “found to have a sigma receptor binding action”.

On to `COc1cc2c(cc1OC)C(=O)C(CC1CCN(Cc3cccc(F)c3)CC1)C2.Cl` (stereo not drawn) [Example 34, 1-(3-Fluorobenzyl)-4-[(5,6-dimethoxy-1-indanon)-2-yl]methylpiperidine hydrochloride], for which the “sigma receptor binding action” value is given as “found to have a sigma receptor binding action”.

In the case of `COc1cc2c(cc1OC)C(=O)C(CC1CCN(Cc3cccc(C)c3)CC1)C2.Cl` (stereo not drawn) [Example 35, 1-(3-Methylbenzyl)-4-[(5,6-dimethoxy-1-indanon)-2-yl]methylpiperidine hydrochloride], the “sigma receptor binding action” value is reported as “found to have a sigma receptor binding action”.

As to `COc1cc2c(cc1OC)C(=O)C(CC1CCN(CC3CCCCC3)CC1)C2.Cl` (stereo not drawn) [Example 36, 1-Cyclohexylmethyl-4-[(5,6-dimethoxy-1-indanon)-2-yl]methylpiperidine hydrochloride], the “sigma receptor binding action” value is “found to have a sigma receptor binding action”.

For the compound `CCOc1cc2c(cc1OCC)C(=O)C(F)(CC1CCN(Cc3cccc(F)c3)CC1)C2` (stereo not drawn) [Example 41, 1-(3-fluorobenzyl)-4-[(5,6-diethoxy-2-fluoro-1-indanon)-2-yl]methylpiperidine hydrochloride], the half-inhibitory concentration (IC50) was determined as 3 nM.

Compound `CCOc1cc2c(cc1OCC)C(=O)C(F)(CC1CCN(Cc3ccccc3Cl)CC1)C2` (stereo not drawn) [Example 43, 1-(2-chlorobenzyl)-4-[(5,6-diethoxy-2-fluoro-1-indanon)-2-yl]methylpiperidine hydrochloride] showed an IC50 of 1.5 nM.

The compound `CCOc1cc2c(cc1OCC)C(=O)C(F)(CC1CCN(Cc3ccc(C)cc3)CC1)C2` (stereo not drawn) [Example 48, 1-(4-methylbenzyl)-4-[(5,6-diethoxy-2-fluoro-1-indanon)-2-yl]methylpiperidine hydrochloride] had an IC50 of 2.8 nM.

In the case of `CCOc1cc2c(cc1OCC)C(=O)C(F)(CC1CCN(CC3CCCCCC3)CC1)C2` (stereo not drawn) [Example 51, 1-cycloheptylmethyl-4-[(5,6-diethoxy-2-fluoro-1-indanon)-2-yl]methylpiperidine hydrochloride], the 50% inhibitory concentration (IC50) turned out to be 1.1 nM.

Compound `CCOc1cc2c(cc1OCC)C(=O)C(F)(CC1CCN(CC3CCCCCCC3)CC1)C2` (stereo not drawn) [Example 52, 1-cyclooctylmethyl-4-[(5,6-diethoxy-2-fluoro-1-indanon)-2-yl]methylpiperidine hydrochloride] registered an IC50 of 1.1 nM.

As to `Cl.O=C1c2ccccc2CC1(F)CC1CCN(Cc2ccccc2)CC1` (stereo not drawn) [Example 54, 1-Benzyl-4-[(2-fluoro-1-indanon)-2-yl]methylpiperidine hydrochloride], the “sigma receptor binding action” value is reported as “found to have a sigma receptor binding action”.

As for `COc1ccc2c(c1)CC(F)(CC1CCN(Cc3ccccc3)CC1)C2=O.Cl` (stereo not drawn) [Example 55, 1-Benzyl-4-[(5-methoxy-2-fluoro-1-indanon)-2-yl]methylpiperidine hydrochloride], the “sigma receptor binding action” value is “found to have a sigma receptor binding action”.

For `COc1cc2c(cc1OC)C(=O)C(F)(CC1CCN(Cc3ccccc3)CC1)C2.Cl` (stereo not drawn) [Example 56, 1-Benzyl-4-[(5,6-dimethoxy-2-fluoro-1-indanon)-2-yl]methylpiperidine hydrochloride], the “sigma receptor binding action” value is “found to have a sigma receptor binding action”.

Turning to `CCOc1cc2c(cc1OCC)C(=O)C(F)(CC1CCN(Cc3ccccc3)CC1)C2.Cl` (stereo not drawn) [Example 57, 1-Benzyl-4-[(5,6-diethoxy-2-fluoro-1-indanon)-2-yl]methylpiperidine hydrochloride], the “sigma receptor binding action” value is “found to have a sigma receptor binding action”.

Consider `CCCOc1cc2c(cc1OCCC)C(=O)C(F)(CC1CCN(Cc3ccccc3)CC1)C2.Cl` (stereo not drawn) [Example 58, 1-Benzyl-4-[[5,6-di(1-propyloxy)-2-fluoro-1-indanon]-2-yl]methylpiperidine hydrochloride], for which the IC50 was found to be 1.3 nM and the “sigma receptor binding action” value was “found to have a sigma receptor binding action”.

As to `COc1cc2c(cc1OC)C(=O)C(F)(C1CCN(Cc3ccccc3)CC1)C2.Cl` (stereo not drawn) [Example 59, 1-Benzyl-4-[(5,6-dimethoxy-2-fluoro-1-indanon)-2-yl]piperidine], the “sigma receptor binding action” value is “found to have a sigma receptor binding action”.

On to `COc1cc2c(cc1OC)C(=O)C(F)(CCC1CCN(Cc3ccccc3)CC1)C2` (stereo not drawn) [Example 60, 1-Benzyl-4-[2-[(5,6-dimethoxy-2-fluoro-1-indanon)-2-yl]ethyl]piperidine], for which the “sigma receptor binding action” value is “found to have a sigma receptor binding action”.

For `COc1cc2c(cc1OC)C(=O)C(F)(CCCC1CCN(Cc3ccccc3)CC1)C2.Cl` (stereo not drawn) [Example 61, 1-Benzyl-4-[3-[(5,6-dimethoxy-2-fluoro-1-indanon)-2-yl]propyl]piperidinepiperidine hydrochloride], the “sigma receptor binding action” value is on record as “found to have a sigma receptor binding action”.

`COc1cc2c(cc1OC)C(=O)C(F)(CC1CCN(Cc3ccccc3F)CC1)C2.Cl` (stereo not drawn) [Example 62, 1-(2-Fluorobenzyl)-4-[(5,6-dimethoxy-2-fluoro-1-indanon)-2-yl]methylpiperidine hydrochloride]: the “sigma receptor binding action” value is listed as “found to have a sigma receptor binding action”.

In the case of `COc1cc2c(cc1OC)C(=O)C(F)(CC1CCN(Cc3cccc(F)c3)CC1)C2.Cl` (stereo not drawn) [Example 63, 1-(3-Fluorobenzyl)-4-[(5,6-dimethoxy-2-fluoro-1-indanon)-2-yl]methylpiperidine hydrochloride], the “sigma receptor binding action” value is given as “found to have a sigma receptor binding action”.

As to `COc1cc2c(cc1OC)C(=O)C(F)(CC1CCN(Cc3ccc(F)cc3)CC1)C2.Cl` (stereo not drawn) [Example 64, 1-(4-Fluorobenzyl)-4-[(5,6-dimethoxy-2-fluoro-1-indanon)-2-yl]methylpiperidine hydrochloride], the “sigma receptor binding action” value is given as “found to have a sigma receptor binding action”.

As to `COc1cc2c(cc1OC)C(=O)C(F)(CC1CCN(Cc3cccc(C)c3)CC1)C2.Cl` (stereo not drawn) [Example 65, 1-(3-Methylbenzyl)-4-[(5,6-dimethoxy-2-fluoro-1-indanon)-2-yl]methylpiperidine hydrochloride], the “sigma receptor binding action” value is “found to have a sigma receptor binding action”.

Broadly, the IC50 is the concentration at which inhibition is half-maximal. Low values mean greater potency in that assay, high ones weaker potency in that assay.
